Consider one molecule from article PMC11597207, “Synthesis and Anti-Inflammatory and Analgesic Potentials of Ethyl 2-(2,5-Dioxo-1-Phenylpyrrolidin-3-yl)-2-Methylpropanoate” (Pharmaceuticals, 2024).

The target of one assay is T1, 5-LOX (Homo sapiens, UniProt P09917).
T1 construct: purchased Cayman Chemical Batch No.: A3457
T1 sequence (P09917 1-674): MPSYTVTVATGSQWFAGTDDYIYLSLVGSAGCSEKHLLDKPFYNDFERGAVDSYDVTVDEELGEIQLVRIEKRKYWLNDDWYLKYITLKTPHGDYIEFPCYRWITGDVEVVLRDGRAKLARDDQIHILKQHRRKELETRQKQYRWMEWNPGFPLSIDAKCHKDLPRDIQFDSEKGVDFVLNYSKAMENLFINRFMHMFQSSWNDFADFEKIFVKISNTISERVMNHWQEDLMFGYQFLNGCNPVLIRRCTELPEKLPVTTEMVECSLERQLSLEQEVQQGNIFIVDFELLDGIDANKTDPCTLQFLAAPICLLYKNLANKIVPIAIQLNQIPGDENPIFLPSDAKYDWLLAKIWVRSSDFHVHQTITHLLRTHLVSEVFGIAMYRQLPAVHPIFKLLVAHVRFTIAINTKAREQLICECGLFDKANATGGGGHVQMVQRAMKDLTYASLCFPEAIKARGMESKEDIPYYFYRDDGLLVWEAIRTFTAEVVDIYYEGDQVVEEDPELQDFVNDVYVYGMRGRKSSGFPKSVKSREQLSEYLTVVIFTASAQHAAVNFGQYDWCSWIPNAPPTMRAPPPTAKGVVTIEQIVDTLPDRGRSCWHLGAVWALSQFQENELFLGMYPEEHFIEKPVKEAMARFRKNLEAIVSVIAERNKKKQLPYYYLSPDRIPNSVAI
As to the kind of experiment: 5-LOX inhibitory assay. The assay is classed as biochemical. On the procedure:
The activity of MAK01 against the 5-LOX enzyme was investigated using a human recombinant form of 5-LOX [47]. To begin the 5-LOX activity assay, a 10,000 U/mL solution of 5-LOX was prepared in a phosphate buffer with a pH of 6.3. A range of concentrations of the test compounds in the same buffer were prepared for assay. As a substrate for 5-LOX, linoleic acid (80 mM) was diluted with ethyl alcohol and used in the assay. The experiment involved mixing the same amount of both the enzyme solution and the test sample, such as mixing 0.25 mL 5-LOX with 0.25 mL of the compound, both dissolved in buffer. The mixing was followed by incubation at 25 °C for 5 to 10 min. Subsequently, 0.10 mL of the linoleic acid solution was added and allowed to incubate for another 5 min. The absorbance was measured using a UV–visible spectrophotometer at a wavelength of 234 nm, and the percent inhibition was calculated based on the absorbance readings. The same procedure was repeated for different concentrations of the test samples. Zileuton, as a reference drug, was used in comparisons. Using the following formula, the percent inhibition for each sample was calculated: % Inhibition=Abs. of Control−Abs. of Sample/Abs. of Control×100

In the next assay the target is T2, COX-2 (Homo sapiens, UniProt P35354).
T2 construct: purchased Cayman Chemical Batch No.: G5234
T2 sequence (P35354 18-604): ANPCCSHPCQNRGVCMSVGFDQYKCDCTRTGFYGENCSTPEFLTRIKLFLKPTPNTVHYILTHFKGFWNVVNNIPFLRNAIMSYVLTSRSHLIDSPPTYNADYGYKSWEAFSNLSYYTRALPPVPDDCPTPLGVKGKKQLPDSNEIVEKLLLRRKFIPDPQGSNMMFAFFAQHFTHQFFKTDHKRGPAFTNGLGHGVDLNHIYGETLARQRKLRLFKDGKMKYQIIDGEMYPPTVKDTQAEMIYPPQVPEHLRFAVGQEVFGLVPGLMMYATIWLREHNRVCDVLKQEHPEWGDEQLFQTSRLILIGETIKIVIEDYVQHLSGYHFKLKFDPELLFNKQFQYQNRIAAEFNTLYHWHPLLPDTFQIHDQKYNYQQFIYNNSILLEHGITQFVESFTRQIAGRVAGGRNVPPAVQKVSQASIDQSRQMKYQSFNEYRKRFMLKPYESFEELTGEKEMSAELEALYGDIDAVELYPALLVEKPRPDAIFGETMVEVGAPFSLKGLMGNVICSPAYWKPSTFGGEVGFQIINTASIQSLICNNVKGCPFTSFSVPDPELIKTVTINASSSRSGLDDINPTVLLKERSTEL
As to the kind of experiment: COX-2 inhibitory assay. The assay is classed as biochemical. On the procedure:
The inhibitory potential of synthesized MAK01 was assessed using the COX-2 inhibitory protocol. The process started with the preparation of a COX-2 enzyme solution with a concentration of 300 U per ml. The activation of the enzymes was achieved by taking and mixing 10 μL and 50 μL of the COX-2 enzyme solution and a co-factor solution, respectively. Once mixed, this solution needed to be chilled. The chilling process was carried out at 4 °C in an ice bath. The duration for this cooling phase was set at five to six minutes. […] It was made up of 0.1 M Tris buffer with a pH of 8.0, 1 mM of hematin, 0.9 mM of glutathione, and 0.24 mM of TMPD in a phosphate buffer. Following the initial steps, a test sample was prepared. The volume of this sample was fixed at 20 μL. The 20 μL sample was mixed with 60 μL COX-2 solution. After combining them, the sample and enzyme solution were kept at ambient temperature. The solution was allowed to rest for a duration from five to ten minutes. To start the reaction, 20 μL of 30 mM arachidonic acid was incorporated. Upon adding the acid, the solution was subjected to an incubation period. This period lasted for 15 min at a temperature of 37 °C. Post incubation, HCl was added to stop the reaction. The absorbance of this final solution was then measured. This was carried out using a UV–visible spectrophotometer at a specific 570 nm wavelength. Similarly, the above procedure was used for all the other concentrations of the test sample. The COX-2 enzyme inhibition was calculated as per the below equation. […] Using the below formula, the percent inhibition of each sample was calculated. % Inhibition=Abs. test sample−Abs. background/Abs. solvent blank−Abs. background×100
Using established protocols, the inhibitory potency of MAK01 against both COX-1 and COX-2 enzymes was assessed. This evaluation allowed for the determination of the selectivity of these new compounds. The IC50 values for both COX-1 and COX-2 were then used to calculate the selectivity index of the compound.

Each structure is given as a SMILES string.

Consider `CCOC(=O)C(C)(C)C1CC(=O)N(c2ccccc2)C1=O` (centres unmarked) [MAK01, ethyl 2-(2,5-dioxo-1-phenylpyrrolidin-3-yl)-2-methylpropanoate], for which the 50% inhibitory concentration (IC50) (commonly the point on the concentration scale where inhibition reaches its midpoint) was 363 µM on 5-LOX and 449 µM on COX-2. Besides, the 5-LOX percent inhibition came to 45% on 5-LOX (62.50 μg/mL); 52% on 5-LOX (125 μg/mL); 60% at 5-LOX (250 μg/mL); 70% on 5-LOX (500 μg/mL); 79% at 5-LOX (1000 μg/mL). The inhibition (usually the share of the control response that was lost under treatment) at 62.5 µg/mL on 5-LOX (62.50 μg/mL, read-out: 5-LOX percent inhibition) worked out at 44.8%; on COX-2 (62.5 μg/mL, read-out: COX-2 percent inhibition), 40.1%. The inhibition at 125 µg/mL at 5-LOX (125 μg/mL, read-out: 5-LOX percent inhibition) stood at 51.9%; on COX-2 (125 μg/mL, read-out: COX-2 percent inhibition), 49.4%. Also, the inhibition at 250 µg/mL at 5-LOX (250 μg/mL, read-out: 5-LOX percent inhibition) is 60.2%; at COX-2 (250 μg/mL, read-out: COX-2 percent inhibition), 58.9%. The inhibition at 500 µg/mL amounted to 69.9% on 5-LOX (500 μg/mL, read-out: 5-LOX percent inhibition) and 67.8% at COX-2 (500 μg/mL, read-out: COX-2 percent inhibition). The inhibition at 1000 µg/mL on 5-LOX (1000 μg/mL, read-out: 5-LOX percent inhibition) came out at 79.4%; at COX-2 (1000 μg/mL, read-out: COX-2 percent inhibition) it was 78.7%. Further, the COX-2 percent inhibition at COX-2 (62.5 μg/mL) came out at 40%; at COX-2 (125 μg/mL), 49%; at COX-2 (250 μg/mL), 59%; at COX-2 (500 μg/mL) it was 68%; at COX-2 (1000 μg/mL), 79%. Further, the “Selectivity for COX-2 compared to COX-1” value on COX-2 (from IC50 values of COX-1 and COX-2) was found to be 3 fold.
